In one data set the test system is Pseudomonas aeruginosa. The conditions noted are these: cited from earlier work.
For another data set, the system named is Escherichia coli. Particulars: cited from earlier work.
The next data set in a line: Solubility. Format: physicochemical. The conditions noted are these: for solubility: 20° C.
Another data set relates to Staphylococcus aureus. The conditions noted are these: cited from earlier work.
In the next data set the test system is Candida albicans. The conditions noted are these: cited from earlier work.
A further data set in a line: Hygroscopicity. In kind it is physicochemical.
The conditions of data set [1]: 20° C., Echa Registration Dossier; cited from earlier work.
Another data set has as its system Aspergillus brasiliensis. Particulars: cited from earlier work.

≈ marks a conversion by molar mass, not a printed value. Read-outs that look alike come from different tables or passages of the source.

As a reminder, the solubility is the dissolved amount per volume that the medium holds.

`CC(=O)CCC(=O)O` [levulinic acid, 4-oxovaleric acid]: the MIC is reported as 0.15% in the data set on Pseudomonas aeruginosa, 0.20% in the data set with Escherichia coli, 0.35% with Staphylococcus aureus and 0.60% in the data set with Candida albicans. For the same compound, in “Solubility” (water), the “water solubility (in words)” value is “good water solubility”.

Turning to `CC(=O)CCC(=O)[O-].[Na+]` [sodium levulinate], the “hygroscopicity (in words)” value in “Hygroscopicity” is reported as “highly hygroscopic”.

Regarding `COc1ccc(C(=O)O)cc1` [p-methoxybenzoic acid], the MIC with Pseudomonas aeruginosa was 0.16%; with Escherichia coli, 0.16%; with Aspergillus brasiliensis it was 0.0025%; in the data set with Staphylococcus aureus, 0.08%; with Candida albicans it was 0.04%. Moreover, the solubility in water in data set [1] is 0.2 g/L (≈ 1310 µM). In addition, the solubility in the data set “Solubility” (organic solvent or mixture, ethanol, read-out: solubility in ethanol) stood at 50 mg/mL (≈ 329000 µM); in “Solubility” (water, read-out: solubility in water), 0.3 mg/mL (≈ 1970 µM). Also, the “water solubility (in words)” value in the data set “Solubility” (water) is “low water solubility”.

Consider `COc1ccc(C(=O)[O-])cc1.[Na+]` [p-methoxybenzoate salt, sodium p-methoxybenzoate], for which the “hygroscopicity (in words)” value in “Hygroscopicity” is “non-hygroscopic”.

The values are drawn from US12532883B2, “Powder compositions comprising salts of C4 to C10 oxocarboxylic acids and of unsaturated or aromatic C6 to C10 carboxylic acids” (Cosphatec GmbH, priority 2019, dated 2026).
